Measurements from PubChem BioAssay (NCI).
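Growth conditions: 96-well plates. Treatment: test compound, 48 hours, 5 concentrations. Analysis: linear interpolation between bracketing concentrations; unreached endpoints set to highest concentration. Definition used: TGI = concentration required for complete inhibition of growth.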

Assays:
Experiment in all cases: growth of human tumour cells (NCI), 48 h
786-0 renal = system: 786-0 renal
A498 renal = system: A498 renal
A549 NSCLC = system: A549 NSCLC
ACHN renal = system: ACHN renal
BT-549 breast = system: BT-549 breast
CAKI-1 renal = system: CAKI-1 renal
CCRF-CEM leukemia = system: CCRF-CEM leukemia
COLO 205 colon = system: COLO 205 colon
DU-145 prostate = system: DU-145 prostate
EKVX NSCLC = system: EKVX NSCLC
HCC-2998 colon = system: HCC-2998 colon
HCT-116 colon = system: HCT-116 colon
HCT-15 colon = system: HCT-15 colon
HL-60(TB) leukemia = system: HL-60(TB) leukemia
HOP-62 NSCLC = system: HOP-62 NSCLC
HOP-92 NSCLC = system: HOP-92 NSCLC
HS 578T breast = system: HS 578T breast
HT29 colon = system: HT29 colon
IGROV1 ovarian = system: IGROV1 ovarian
K-562 leukemia = system: K-562 leukemia
KM12 colon = system: KM12 colon
LOX IMVI melanoma = system: LOX IMVI melanoma
M14 melanoma = system: M14 melanoma
MCF7 breast = system: MCF7 breast
MDA-MB-231 breast = system: MDA-MB-231 breast
MDA-MB-435 = system: MDA-MB-435
MDA-N = system: MDA-N
MOLT-4 leukemia = system: MOLT-4 leukemia
NCI-H226 lung = system: NCI-H226 lung
NCI-H23 lung = system: NCI-H23 lung
NCI-H460 lung = system: NCI-H460 lung
NCI-H522 lung = system: NCI-H522 lung
NCI/ADR-RES ovarian = system: NCI/ADR-RES ovarian
OVCAR-3 ovarian = system: OVCAR-3 ovarian
OVCAR-4 ovarian = system: OVCAR-4 ovarian
OVCAR-5 ovarian = system: OVCAR-5 ovarian
OVCAR-8 ovarian = system: OVCAR-8 ovarian
PC-3 prostate = system: PC-3 prostate
RPMI-8226 leukemia = system: RPMI-8226 leukemia
RXF 393 renal = system: RXF 393 renal
SF-268 CNS = system: SF-268 CNS
SF-295 CNS = system: SF-295 CNS
SF-539 CNS = system: SF-539 CNS
SK-MEL-2 melanoma = system: SK-MEL-2 melanoma
SK-MEL-28 melanoma = system: SK-MEL-28 melanoma
SK-MEL-5 melanoma = system: SK-MEL-5 melanoma
SK-OV-3 ovarian = system: SK-OV-3 ovarian
SN12C renal = system: SN12C renal
SNB-19 CNS = system: SNB-19 CNS
SNB-75 CNS = system: SNB-75 CNS
SR leukemia = system: SR leukemia
SW-620 colon = system: SW-620 colon
T-47D breast = system: T-47D breast
TK-10 renal = system: TK-10 renal
U251 CNS = system: U251 CNS
UACC-257 melanoma = system: UACC-257 melanoma
UACC-62 melanoma = system: UACC-62 melanoma
UO-31 renal = system: UO-31 renal
MALME-3M melanoma = system: MALME-3M melanoma

O=C1Nc2ccccc2/C1=C/c1ccccc1
TGI (786-0 renal): 28.4 µM
TGI (A498 renal): 30.5 µM
TGI (A549 NSCLC): 90.7 µM
TGI (ACHN renal): > 100 µM
TGI (BT-549 breast): 31.2 µM
TGI (CAKI-1 renal): > 100 µM
TGI (CCRF-CEM leukemia): 71.6 µM
TGI (COLO 205 colon): 30.9 µM
TGI (DU-145 prostate): 27.4 µM
TGI (EKVX NSCLC): 28.8 µM
TGI (HCC-2998 colon): 30.1 µM
TGI (HCT-116 colon): 27 µM
TGI (HCT-15 colon): 35.4 µM
TGI (HL-60(TB) leukemia): 43.5 µM
TGI (HOP-62 NSCLC): 38.5 µM
TGI (HOP-92 NSCLC): 25.5 µM
TGI (HS 578T breast): 91.8 µM
TGI (HT29 colon): 48 µM
TGI (IGROV1 ovarian): 33.1 µM
TGI (K-562 leukemia): > 100 µM
TGI (KM12 colon): 33.2 µM
TGI (LOX IMVI melanoma): 27.6 µM
TGI (M14 melanoma): 30.6 µM
TGI (MCF7 breast): 23.7 µM
TGI (MDA-MB-231 breast): 46.8 µM
TGI (MDA-MB-435): 33.2 µM
TGI (MDA-N): 40.7 µM
TGI (MOLT-4 leukemia): 57.5 µM
TGI (NCI-H226 lung): 37.4 µM
TGI (NCI-H23 lung): 42.7 µM
TGI (NCI-H460 lung): 38.5 µM
TGI (NCI-H522 lung): 33.9 µM
TGI (NCI/ADR-RES ovarian): 70.6 µM
TGI (OVCAR-3 ovarian): 33.7 µM
TGI (OVCAR-4 ovarian): 83 µM
TGI (OVCAR-5 ovarian): 34.5 µM
TGI (OVCAR-8 ovarian): 66.1 µM
TGI (PC-3 prostate): 31.1 µM
TGI (RPMI-8226 leukemia): 77.7 µM
TGI (RXF 393 renal): 22.9 µM
TGI (SF-268 CNS): 35.1 µM
TGI (SF-295 CNS): 36.1 µM
TGI (SF-539 CNS): 42.6 µM
TGI (SK-MEL-2 melanoma): 28.5 µM
TGI (SK-MEL-28 melanoma): 44.4 µM
TGI (SK-MEL-5 melanoma): 26.1 µM
TGI (SK-OV-3 ovarian): 98.3 µM
TGI (SN12C renal): 28.5 µM
TGI (SNB-19 CNS): 30 µM
TGI (SNB-75 CNS): 33.8 µM
TGI (SR leukemia): 48.1 µM
TGI (SW-620 colon): > 100 µM
TGI (T-47D breast): 41.9 µM
TGI (TK-10 renal): 45.1 µM
TGI (U251 CNS): 30 µM
TGI (UACC-257 melanoma): 29 µM
TGI (UACC-62 melanoma): 30.7 µM
TGI (UO-31 renal): 25.3 µM

Cc1nc(N)c(N2CCN(Cc3ccccc3)CC2)c(=O)[nH]1
TGI (786-0 renal): > 100 µM
TGI (A498 renal): > 100 µM
TGI (A549 NSCLC): > 100 µM
TGI (ACHN renal): > 100 µM
TGI (BT-549 breast): > 100 µM
TGI (CCRF-CEM leukemia): > 100 µM
TGI (COLO 205 colon): > 100 µM
TGI (DU-145 prostate): > 100 µM
TGI (EKVX NSCLC): > 100 µM
TGI (HCC-2998 colon): > 100 µM
TGI (HCT-116 colon): > 100 µM
TGI (HCT-15 colon): > 100 µM
TGI (HL-60(TB) leukemia): > 100 µM
TGI (HOP-62 NSCLC): > 100 µM
TGI (HS 578T breast): > 100 µM
TGI (HT29 colon): > 100 µM
TGI (K-562 leukemia): > 100 µM
TGI (KM12 colon): > 100 µM
TGI (LOX IMVI melanoma): > 100 µM
TGI (M14 melanoma): > 100 µM
TGI (MALME-3M melanoma): > 100 µM
TGI (MCF7 breast): > 100 µM
TGI (MDA-MB-231 breast): > 100 µM
TGI (MDA-MB-435): > 100 µM
TGI (MDA-N): > 100 µM
TGI (MOLT-4 leukemia): > 100 µM
TGI (NCI-H226 lung): > 100 µM
TGI (NCI-H23 lung): > 100 µM
TGI (NCI-H460 lung): > 100 µM
TGI (NCI-H522 lung): > 100 µM
TGI (NCI/ADR-RES ovarian): > 100 µM
TGI (OVCAR-3 ovarian): > 100 µM
TGI (OVCAR-5 ovarian): > 100 µM
TGI (OVCAR-8 ovarian): > 100 µM
TGI (PC-3 prostate): > 100 µM
TGI (RPMI-8226 leukemia): > 100 µM
TGI (SF-268 CNS): > 100 µM
TGI (SF-295 CNS): > 100 µM
TGI (SF-539 CNS): > 100 µM
TGI (SK-MEL-2 melanoma): > 100 µM
TGI (SK-MEL-28 melanoma): > 100 µM
TGI (SN12C renal): > 100 µM
TGI (SNB-19 CNS): > 100 µM
TGI (SR leukemia): > 100 µM
TGI (SW-620 colon): > 100 µM
TGI (T-47D breast): > 100 µM
TGI (TK-10 renal): > 100 µM
TGI (U251 CNS): > 100 µM
TGI (UACC-257 melanoma): > 100 µM
TGI (UO-31 renal): > 100 µM
